Experimental data: the NIST ThermoML archive (doi:10.1021/acs.jced.7b00107)
± gives the expanded uncertainty stated by the source.

Conditions: for molar entropy: 101.33 kPa; for Triple point temperature: Adiabatic calorimetry

Cl.NC12CC3CC(CC(C3)C1)C2 [1-aminoadamantane hydrochloride]
Conditions | molar entropy [J/K/mol]
5 K, Crystal 3, Small (less than 1 g) adiabatic calorimetry | 0.1924 ± 0.028
10 K, Crystal 3, Small (less than 1 g) adiabatic calorimetry | 1.564 ± 0.063
15 K, Crystal 3, Small (less than 1 g) adiabatic calorimetry | 4.477 ± 0.13
20 K, Crystal 3, Small (less than 1 g) adiabatic calorimetry | 8.48 ± 0.18
25 K, Crystal 3, Small (less than 1 g) adiabatic calorimetry | 13.09 ± 0.23
30 K, Crystal 3, Small (less than 1 g) adiabatic calorimetry | 17.99 ± 0.28
35 K, Crystal 3, Small (less than 1 g) adiabatic calorimetry | 22.99 ± 0.32
40 K, Crystal 3, Small (less than 1 g) adiabatic calorimetry | 27.96 ± 0.36
45 K, Crystal 3, Small (less than 1 g) adiabatic calorimetry | 32.87 ± 0.39
50 K, Crystal 3, Small (less than 1 g) adiabatic calorimetry | 37.68 ± 0.43
60 K, Crystal 3, Small (less than 1 g) adiabatic calorimetry | 46.99 ± 0.51
70 K, Crystal 3, Small (less than 1 g) adiabatic calorimetry | 55.88 ± 0.58
80 K, Crystal 3, Small (less than 1 g) adiabatic calorimetry | 64.42 ± 0.65
90 K, Crystal 3, Small (less than 1 g) adiabatic calorimetry | 72.68 ± 0.73
100 K, Crystal 3, Small (less than 1 g) adiabatic calorimetry | 80.74 ± 0.8
110 K, Crystal 3, Small (less than 1 g) adiabatic calorimetry | 88.67 ± 0.85
120 K, Crystal 2, Small (less than 1 g) adiabatic calorimetry | 96.9 ± 0.93
120 K, Crystal 3, Small (less than 1 g) adiabatic calorimetry | 96.53 ± 0.91
123.1 K, Crystal 1, Small (less than 1 g) adiabatic calorimetry | 100.6 ± 1
123.1 K, Crystal 2, Small (less than 1 g) adiabatic calorimetry | 99.33 ± 0.95
130 K, Crystal 1, Small (less than 1 g) adiabatic calorimetry | 106 ± 1
140 K, Crystal 1, Small (less than 1 g) adiabatic calorimetry | 113.7 ± 1.1
150 K, Crystal 1, Small (less than 1 g) adiabatic calorimetry | 121.3 ± 1.2
160 K, Crystal 1, Small (less than 1 g) adiabatic calorimetry | 128.7 ± 1.2
170 K, Crystal 1, Small (less than 1 g) adiabatic calorimetry | 136 ± 1.2
180 K, Crystal 1, Small (less than 1 g) adiabatic calorimetry | 143.3 ± 1.3
190 K, Crystal 1, Small (less than 1 g) adiabatic calorimetry | 150.5 ± 1.4
200 K, Crystal 1, Small (less than 1 g) adiabatic calorimetry | 157.7 ± 1.4
210 K, Crystal 1, Small (less than 1 g) adiabatic calorimetry | 164.8 ± 1.5
220 K, Crystal 1, Small (less than 1 g) adiabatic calorimetry | 172 ± 1.5
230 K, Crystal 1, Small (less than 1 g) adiabatic calorimetry | 179.1 ± 1.5
240 K, Crystal 1, Small (less than 1 g) adiabatic calorimetry | 186.3 ± 1.6
250 K, Crystal 1, Small (less than 1 g) adiabatic calorimetry | 193.4 ± 1.7
260 K, Crystal 1, Small (less than 1 g) adiabatic calorimetry | 200.6 ± 1.7
270 K, Crystal 1, Small (less than 1 g) adiabatic calorimetry | 207.8 ± 1.7
280 K, Crystal 1, Small (less than 1 g) adiabatic calorimetry | 215 ± 1.9
290 K, Crystal 1, Small (less than 1 g) adiabatic calorimetry | 222.2 ± 1.9
298.15 K, Crystal 1, Small (less than 1 g) adiabatic calorimetry | 228.1 ± 1.9
300 K, Crystal 1, Small (less than 1 g) adiabatic calorimetry | 229.5 ± 1.9
310 K, Crystal 1, Small (less than 1 g) adiabatic calorimetry | 236.7 ± 1.9
320 K, Crystal 1, Small (less than 1 g) adiabatic calorimetry | 244 ± 2.1
330 K, Crystal 1, Small (less than 1 g) adiabatic calorimetry | 251.3 ± 2.1
340 K, Crystal 1, Small (less than 1 g) adiabatic calorimetry | 258.6 ± 2.1
350 K, Crystal 1, Small (less than 1 g) adiabatic calorimetry | 265.9 ± 2.2
360 K, Crystal 1, Small (less than 1 g) adiabatic calorimetry | 273.3 ± 2.3
370 K, Crystal 1, Small (less than 1 g) adiabatic calorimetry | 280.6 ± 2.3
380 K, Crystal 1, Small sample (50 mg) DSC | 288 ± 6.7
390 K, Crystal 1, Small sample (50 mg) DSC | 295.4 ± 6.9
400 K, Crystal 1, Small sample (50 mg) DSC | 302.8 ± 7.2
410 K, Crystal 1, Small sample (50 mg) DSC | 310.2 ± 7.5
420 K, Crystal 1, Small sample (50 mg) DSC | 317.6 ± 7.9
430 K, Crystal 1, Small sample (50 mg) DSC | 325 ± 8.2
440 K, Crystal 1, Small sample (50 mg) DSC | 332.5 ± 8.6
450 K, Crystal 1, Small sample (50 mg) DSC | 339.9 ± 9
460 K, Crystal 1, Small sample (50 mg) DSC | 347.3 ± 9.4
470 K, Crystal 1, Small sample (50 mg) DSC | 354.8 ± 9.8

Conditions | Triple point temperature [K]
Crystal 2 | 123.1 ± 0.4
Crystal 3 | 120 ± 0.4
